According to ChEMBL document CHEMBL3046397, “Synthesis and Insecticidal Activity of 4-1, 2, 4-Thiadiazolin-3-ones” (J Pestic Sci, 1994):

Experiments:
[1] = tested on: Spodoptera litura; assay: Ovicidal activity against […] Spodoptera litura in paraffin paper assessed as egg mortality at 8 to 16 ppm at 25 degC, 65% RH measured after 7 days by egg dipping method; format: functional
[2] = tested on: Spodoptera litura; assay: Insecticidal activity against third-instar larvae of Spodoptera litura in compound treated sweet potato leaves assessed as mortality at 8 to 31 ppm at 25 degC, 65% RH measured after 5 days by leaf dipping method; format: functional
[3] = tested on: Mythimna separata; assay: Insecticidal activity against third-instar larvae Mythimna separata (Oriental armyworm) in compound treated maize leaves assessed as mortality at 0.1 ppm at 25 degC, 65% RH measured after 5 days by leaf dipping method; format: functional; details: foliar, 120 h
[4] = tested on: Spodoptera litura; assay: Ovicidal activity against […] Spodoptera litura in paraffin paper assessed as egg mortality at 125 ppm at 25 degC, 65% RH measured after 7 days by egg dipping method; format: functional; details: 168 h
[5] = tested on: Mythimna separata; assay: Insecticidal activity against third-instar larvae Mythimna separata (Oriental armyworm) in compound treated maize leaves assessed as mortality at 0.25 to 1 ppm at 25 degC, 65% RH measured after 5 days by leaf dipping method; format: functional
[6] = tested on: Spodoptera litura; assay: Insecticidal activity against third-instar larvae of Spodoptera litura in compound treated sweet potato leaves assessed as mortality at 31 ppm at 25 degC, 65% RH measured after 5 days by leaf dipping method; format: functional; details: foliar, 120 h
[7] = tested on: Mythimna separata; assay: Insecticidal activity against third-instar larvae Mythimna separata (Oriental armyworm) in compound treated maize leaves assessed as mortality at 8 to 31 ppm at 25 degC, 65% RH measured after 5 days by leaf dipping method; format: functional
[8] = tested on: Mythimna separata; assay: Insecticidal activity against third-instar larvae Mythimna separata (Oriental armyworm) in compound treated maize leaves assessed as mortality at 31 ppm at 25 degC, 65% RH measured after 5 days by leaf dipping method; format: functional; details: foliar, 120 h
[9] = tested on: Spodoptera litura; assay: Insecticidal activity against third-instar larvae of Spodoptera litura in compound treated sweet potato leaves assessed as mortality at 0.25 to 1 ppm at 25 degC, 65% RH measured after 5 days by leaf dipping method; format: functional
[10] = tested on: Spodoptera litura; assay: Ovicidal activity against […] Spodoptera litura in paraffin paper assessed as egg mortality at 31 to 125 ppm at 25 degC, 65% RH measured after 7 days by egg dipping method; format: functional
[11] = tested on: Spodoptera litura; assay: Insecticidal activity against third-instar larvae of Spodoptera litura in compound treated sweet potato leaves assessed as mortality at 2 to 4 ppm at 25 degC, 65% RH measured after 5 days by leaf dipping method; format: functional
[12] = tested on: Spodoptera litura; assay: Ovicidal activity against […] Spodoptera litura in paraffin paper assessed as egg mortality at 0.5 ppm at 25 degC, 65% RH measured after 7 days by egg dipping method; format: functional; details: 168 h
[13] = tested on: Spodoptera litura; assay: Insecticidal activity against third-instar larvae of Spodoptera litura in compound treated sweet potato leaves assessed as mortality at 0.1 ppm at 25 degC, 65% RH measured after 5 days by leaf dipping method; format: functional; details: foliar, 120 h
[14] = tested on: Spodoptera litura; assay: Ovicidal activity against […] Spodoptera litura in paraffin paper assessed as egg mortality at 1 to 4 ppm at 25 degC, 65% RH measured after 7 days by egg dipping method; format: functional
[15] = tested on: Mythimna separata; assay: Insecticidal activity against third-instar larvae Mythimna separata (Oriental armyworm) in compound treated maize leaves assessed as mortality at 2 to 4 ppm at 25 degC, 65% RH measured after 5 days by leaf dipping method; format: functional
[16] = Metabolic stability in Spodoptera litura larvae feaces; format: ADME, organism-based; details: faeces, read-out: Drug recovery
[17] = Stability of the compound under natural condition at 25 degC for 24 hr; format: physicochemical
[18] = tested on: Spodoptera litura; assay: Metabolic stability in homogenized Spodoptera litura larvae; format: ADME, organism-based; details: in vivo

Row | SMILES | mortality [1] | mortality at 0.1 ppm [3] | mortality at 125 ppm [4] | mortality at 31 ppm [6] | further results
1 | O=c1nc(-c2c(F)cccc2F)sn1-c1ccc(OC(F)(F)F)cc1 | >90% | > 90% | – | – | mortality [2]: >90%
2 | O=c1nc(-c2c(F)cccc2F)on1-c1ccc(Cl)cc1 | – | – | < 90% | – | mortality [5]: >90%
3 | O=c1nc(-c2c(F)cccc2F)on1-c1ccc(C(F)(F)F)cc1 | – | – | – | < 90% | mortality [5]: >90%
4 | O=c1nc(-c2c(F)cccc2F)sn1-c1ccc(C(F)(F)F)cc1 | >90% | > 90% | – | < 90% | –
5 | O=c1nc(-c2c(Cl)cccc2Cl)sn1-c1ccc(Cl)cc1 | – | – | < 90% | < 90% | mortality [7]: >90%
6 | O=c1nc(-c2ccccc2C(F)(F)F)sn1-c1ccc(OC(F)(F)F)cc1 | – | – | < 90% | < 90% | mortality at 31 ppm [8]: < 90%
7 | Cc1ccccc1-c1nc(=O)n(-c2ccc(OC(F)(F)F)cc2)o1 | >90% | – | – | < 90% | mortality [7]: >90%
8 | O=c1nc(-c2c(F)cccc2F)sn1-c1ccc(OC(F)(F)F)c(Cl)c1Cl | – | – | < 90% | – | mortality [9]: >90%; mortality [5]: >90%
9 | Cc1cc(-n2sc(-c3c(F)cccc3F)nc2=O)ccc1OC(F)(F)F | – | > 90% | – | – | mortality [10]: >90%; mortality [11]: >90%
10 | O=c1nc(-c2c(F)cccc2F)sn1-c1ccc(OC(F)(F)F)c(Cl)c1 | – | > 90% | – | < 90% | mortality [10]: >90%
11 | O=c1nc(-c2ccccc2Cl)sn1-c1ccc(Cl)cc1 | – | – | < 90% | – | mortality at 31 ppm [8]: < 90%
12 | O=c1nc(-c2c(F)cccc2F)sn1-c1ccc(OC(F)(F)F)cc1F | >90% | > 90% | – | – | mortality [9]: >90%
13 | O=C(NC(=O)c1ccccc1Cl)Nc1ccc(OC(F)(F)F)cc1 [TRIFLUMURON] | – | > 90% | – | – | mortality at 0.5 ppm [12]: > 90%; mortality [2]: >90%
14 | O=c1nc(-c2c(F)cccc2F)on1-c1ccc(OC(F)(F)F)c(Cl)c1 | – | > 90% | < 90% | – | mortality [11]: >90%
15 | O=c1nc(-c2c(F)cccc2F)sn1-c1cc(F)c(OC(F)(F)F)cc1Cl | >90% | – | – | – | mortality at 0.1 ppm [13]: > 90%; mortality [5]: >90%
16 | O=c1nc(-c2c(F)cccc2F)sn1-c1ccc(OC(F)(F)F)c(Cl)c1F | – | > 90% | < 90% | – | mortality [9]: >90%
17 | O=c1nc(-c2c(F)cccc2F)sn1-c1ccc(OC(F)(F)F)cc1Cl | – | – | – | – | mortality [14]: >90%; mortality [11]: >90%; mortality [7]: >90%
18 | O=c1nc(-c2c(F)cccc2F)sn1-c1ccc(OC(F)(F)F)c(F)c1F | >90% | > 90% | – | – | mortality at 0.1 ppm [13]: > 90%
19 | O=C(NC(=O)c1c(F)cccc1F)Nc1cc(F)c(OC(F)(F)F)cc1F | – | > 90% | – | – | mortality at 0.5 ppm [12]: > 90%; mortality at 0.1 ppm [13]: > 90%
20 | Cc1ccccc1-c1nc(=O)n(-c2ccc(OC(F)(F)F)cc2)s1 | >90% | – | – | < 90% | mortality [15]: >90%
21 | O=c1nc(-c2c(F)cccc2F)on1-c1ccc(OC(F)(F)F)cc1 | >90% | – | – | < 90% | mortality [15]: >90%
22 | O=c1nc(-c2c(F)cccc2F)sn1-c1cc(Cl)c(OC(F)(F)F)cc1Cl | – | – | < 90% | – | mortality [11]: >90%; mortality [5]: >90%

Row | SMILES | mortality [1] | mortality at 0.1 ppm [3] | mortality at 125 ppm [4] | mortality at 31 ppm [6] | further results
23 | O=c1nc(-c2c(Cl)cccc2Cl)on1-c1ccc(Cl)cc1 | – | – | < 90% | < 90% | mortality [15]: >90%
24 | O=c1nc(-c2c(F)cccc2Cl)sn1-c1ccc(OC(F)(F)F)cc1 | >90% | – | – | – | mortality [5]: >90%
25 | O=c1nc(-c2c(F)cccc2F)sn1-c1cc(F)c(OC(F)(F)F)cc1F | >90% | > 90% | – | – | mortality [9]: >90%
26 | O=C(NC(=O)c1c(F)cccc1F)Nc1ccc(OC(F)(F)F)c(F)c1F | – | > 90% | – | – | mortality at 0.5 ppm [12]: > 90%; mortality at 0.1 ppm [13]: > 90%
27 | O=C(NC(=O)c1c(F)cccc1F)Nc1ccc(Cl)cc1 [DIFLUBENZURON] | – | > 90% | – | < 90% | mortality [14]: >90%
28 | O=c1nc(-c2ccccc2F)sn1-c1ccc(OC(F)(F)F)cc1 | >90% | – | – | – | mortality [2]: >90%; mortality [15]: >90%
29 | Cc1c(OC(F)(F)F)ccc(-n2sc(-c3c(F)cccc3F)nc2=O)c1F | >90% | > 90% | – | – | mortality [9]: >90%
30 | Cc1c(OC(F)(F)F)ccc(-n2sc(-c3c(F)cccc3F)nc2=O)c1C | – | > 90% | < 90% | – | mortality [9]: >90%
31 | O=c1nc(-c2c(F)cccc2F)sn1-c1cc(Cl)c(F)c(Cl)c1F | >90% | – | – | < 90% | mortality at 31 ppm [8]: < 90%
32 | O=c1nc(-c2c(F)cccc2F)sn1-c1cc(Cl)c(OC(F)(F)F)cc1F | – | > 90% | – | – | mortality [14]: >90%; mortality [11]: >90%
33 | O=c1nc(-c2c(F)cccc2F)sn1-c1ccc(OC(F)(F)F)c(F)c1 | >90% | – | – | – | mortality [11]: >90%; mortality [5]: >90%
34 | O=c1nc(-c2c(F)cccc2F)sn1-c1cc(Cl)c(Oc2ncc(C(F)(F)F)cc2Cl)c(Cl)c1 | – | – | < 90% | < 90% | mortality [5]: >90%
35 | O=c1nc(-c2ccccc2Cl)on1-c1ccc(OC(F)(F)F)cc1 | – | – | < 90% | < 90% | mortality [5]: >90%
36 | O=c1nc(-c2ccccc2Cl)sn1-c1ccc(OC(F)(F)F)cc1 | – | – | – | – | dose excreted [16]: 3.5%; Stability [17]: Stable; Drug recovery [18]: 10.4%; mortality [14]: >90%; mortality [2]: >90%; mortality [5]: >90%
37 | Cc1cc(OC(F)(F)F)ccc1-n1sc(-c2c(F)cccc2F)nc1=O | – | > 90% | – | – | mortality [10]: >90%; mortality [2]: >90%
38 | Cc1cc(-n2sc(-c3c(F)cccc3F)nc2=O)c(C)cc1OC(F)(F)F | – | > 90% | < 90% | – | mortality [11]: >90%
39 | O=c1nc(-c2c(Cl)cccc2Cl)sn1-c1ccc(OC(F)(F)F)cc1 | – | – | < 90% | < 90% | mortality [15]: >90%
40 | O=c1nc(-c2c(F)cccc2F)sn1-c1ccc(OC(F)(F)F)c(F)c1Cl | – | > 90% | – | – | mortality [10]: >90%; mortality at 0.1 ppm [13]: > 90%
41 | O=c1nc(-c2c(F)cccc2F)sn1-c1ccc(Cl)cc1 | – | – | < 90% | < 90% | mortality [5]: >90%
42 | O=c1nc(-c2ccccc2Br)sn1-c1ccc(OC(F)(F)F)cc1 | >90% | – | – | – | mortality [2]: >90%; mortality [7]: >90%
43 | Cc1cc(-n2sc(-c3c(F)cccc3F)nc2=O)cc(C)c1OC(F)(F)F | – | – | < 90% | – | mortality [11]: >90%; mortality [5]: >90%
